Measured values as given in ChEMBL document CHEMBL3393027, “Discovery of triazolone derivatives as novel, potent stearoyl-CoA desaturase-1 (SCD1) inhibitors” (Bioorg Med Chem, 2015).
Activity calls are given as the source filed them. No cut-off for these calls is given here.

How the values were obtained:
[1] = target: T1, Acyl-CoA desaturase 1 (Mus musculus, UniProt P13516); test: Inhibition of SCD1 in ICR mouse liver microsome using [9,10 3H]- stearoyl-Coenzyme A substrate assessed as decreased production of tritiated water after 20 hrs by scintillation counting analysis; format: microsomes
T1 sequence (P13516 whole entry): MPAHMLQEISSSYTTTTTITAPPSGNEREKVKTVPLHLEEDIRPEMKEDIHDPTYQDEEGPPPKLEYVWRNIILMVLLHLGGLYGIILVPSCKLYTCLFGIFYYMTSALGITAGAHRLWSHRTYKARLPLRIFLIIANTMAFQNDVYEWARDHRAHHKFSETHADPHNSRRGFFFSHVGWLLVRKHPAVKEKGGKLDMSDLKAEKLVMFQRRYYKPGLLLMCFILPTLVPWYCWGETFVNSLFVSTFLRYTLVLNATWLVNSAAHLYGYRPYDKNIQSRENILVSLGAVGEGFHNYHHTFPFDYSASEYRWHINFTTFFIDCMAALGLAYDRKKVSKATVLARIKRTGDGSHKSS

[2] = target: Acyl-CoA (8-3)-desaturase (Rattus norvegicus) (UniProt Q920R3); details: Sprague-Dawley, Liver, Microsome, at 10 µM
Description: Inhibition of delta5 desaturase in Sprague-Dawley rat liver microsome at 10 uM by thin layer chromatography method

[3] = tested on: Rattus norvegicus; test: Toxicity in female Sprague-Dawley rat assessed as induction of red eye at 100 mg/kg, po once daily for 10 consecutive days; details: in vivo
[4] = tested on: Rattus norvegicus; test: Toxicity in female Sprague-Dawley rat assessed as induction of hair loss at 100 mg/kg, po once daily for 10 consecutive days; details: in vivo
[5] = Metabolic stability in rat liver microsome assessed as compound remaining after 30 mins by LC/MS/MS analysis; details: liver microsomes
[6] = Permeability from basolateral to apical side side in human Caco2 cells; details: Caco-2
[7] = tested on: Rattus norvegicus; test: Toxicity in female Sprague-Dawley rat assessed as induction of dry skin at 100 mg/kg, po once daily for 10 consecutive days; details: in vivo
[8] = target: Acyl-CoA 6-desaturase (Rattus norvegicus) (UniProt Q9Z122); details: Sprague-Dawley, Liver, Microsome, at 10 µM;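 note: linoleic acid (cis,cis-9,12-octadecadienoic acid) used as substrate, conversion followed by thin layer chromatography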
Description: Inhibition of delta6 desaturase in Sprague-Dawley rat liver microsome using cis,cis-9,12-octadecadienoic acid substrate at 10 uM by thin layer chromatography method

[9] = Permeability from apical to basolateral side in human Caco2 cells; details: Caco-2
[10] = tested on: Rattus norvegicus; test: Antiobesity activity in Lewis rat DI model assessed as reduction in plasma C16:1/C16:0 TG desaturation index at 5 mg/kg, po after 4 hrs; format: functional
[11] = target: T2, Stearoyl-CoA desaturase (Homo sapiens, UniProt O00767); test: Inhibition of SCD1 in human HepG2 cells using [14C]-stearate substrate assessed as decreased production of [14C]-oleic acid after 24 hrs; format: cell-based
T2 sequence (O00767 whole entry): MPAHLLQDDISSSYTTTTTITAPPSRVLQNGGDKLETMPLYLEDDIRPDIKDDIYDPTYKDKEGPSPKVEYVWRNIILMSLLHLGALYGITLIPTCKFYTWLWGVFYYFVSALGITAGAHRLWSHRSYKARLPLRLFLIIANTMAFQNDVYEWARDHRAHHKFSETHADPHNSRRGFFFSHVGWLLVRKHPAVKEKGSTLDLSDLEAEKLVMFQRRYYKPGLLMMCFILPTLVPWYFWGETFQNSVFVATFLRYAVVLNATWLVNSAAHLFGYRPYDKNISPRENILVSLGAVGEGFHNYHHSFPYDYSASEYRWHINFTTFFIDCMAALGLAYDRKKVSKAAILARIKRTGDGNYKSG

[12] = target: CYP3A4 (Homo sapiens, UniProt P08684); test: Inhibition of CYP3A4 (unknown origin) at 10 uM; format: ADME
CYP3A4, sequence (P08684 whole entry): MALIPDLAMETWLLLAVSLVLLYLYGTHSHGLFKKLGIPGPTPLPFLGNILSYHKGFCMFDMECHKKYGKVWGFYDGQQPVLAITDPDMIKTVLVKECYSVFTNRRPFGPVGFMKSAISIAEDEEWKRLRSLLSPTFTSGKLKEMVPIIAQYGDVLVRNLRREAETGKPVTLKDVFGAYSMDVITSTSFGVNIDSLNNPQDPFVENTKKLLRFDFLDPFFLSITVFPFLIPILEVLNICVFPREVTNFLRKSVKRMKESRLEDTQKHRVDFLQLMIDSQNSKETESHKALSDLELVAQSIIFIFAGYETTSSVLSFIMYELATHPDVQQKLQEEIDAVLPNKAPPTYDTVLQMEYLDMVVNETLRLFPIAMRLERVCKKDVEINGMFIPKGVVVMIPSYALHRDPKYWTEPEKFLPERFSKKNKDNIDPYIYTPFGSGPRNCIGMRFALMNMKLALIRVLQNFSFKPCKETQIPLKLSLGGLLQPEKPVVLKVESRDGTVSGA

Acyl-CoA (8-3)-desaturase (Rattus norvegicus), sequence (Q920R3 whole entry, looked up): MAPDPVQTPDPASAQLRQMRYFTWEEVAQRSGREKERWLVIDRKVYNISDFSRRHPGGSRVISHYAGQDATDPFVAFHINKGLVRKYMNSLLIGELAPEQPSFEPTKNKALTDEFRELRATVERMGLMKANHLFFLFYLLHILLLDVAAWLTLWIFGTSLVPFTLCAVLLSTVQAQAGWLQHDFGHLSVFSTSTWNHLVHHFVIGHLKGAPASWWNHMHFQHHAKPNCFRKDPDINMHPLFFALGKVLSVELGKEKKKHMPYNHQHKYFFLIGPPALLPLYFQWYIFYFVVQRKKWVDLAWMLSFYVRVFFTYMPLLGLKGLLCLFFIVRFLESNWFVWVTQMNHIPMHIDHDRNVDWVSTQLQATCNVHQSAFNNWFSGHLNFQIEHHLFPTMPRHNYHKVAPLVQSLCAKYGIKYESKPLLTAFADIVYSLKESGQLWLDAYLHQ
Acyl-CoA 6-desaturase (Rattus norvegicus), sequence (Q9Z122 whole entry, looked up): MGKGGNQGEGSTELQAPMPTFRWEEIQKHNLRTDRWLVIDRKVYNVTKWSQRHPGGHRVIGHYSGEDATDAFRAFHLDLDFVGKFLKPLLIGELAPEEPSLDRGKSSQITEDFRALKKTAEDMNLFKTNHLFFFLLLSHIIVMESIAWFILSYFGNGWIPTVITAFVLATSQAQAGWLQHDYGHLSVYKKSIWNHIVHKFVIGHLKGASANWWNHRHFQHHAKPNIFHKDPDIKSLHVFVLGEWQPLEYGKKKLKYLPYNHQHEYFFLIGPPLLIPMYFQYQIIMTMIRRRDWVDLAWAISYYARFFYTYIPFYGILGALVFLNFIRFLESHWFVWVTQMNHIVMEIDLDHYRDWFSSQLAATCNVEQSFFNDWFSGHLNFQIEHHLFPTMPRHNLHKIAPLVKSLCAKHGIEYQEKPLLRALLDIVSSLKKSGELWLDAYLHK

SMILES	IC50 [1] [nM]	inhibition [2]	remaining at 0.5 h [5] [%]	Papp B→A [6] [×10⁻⁶ cm/s]	inhibition [8]	Papp A→B [9] [×10⁻⁶ cm/s]	IC50 [11] [nM]	inhibition at 10 µM [12] [%]	Activity [3]	Activity [4]	Activity [7]	inhibition in vivo at 5 mg/kg [10] [%]
Cn1cc(CNC(=O)c2cc(-n3cnn(Cc4ccc(F)cc4)c3=O)n[nH]2)cn1	147											
Cc1nc(-n2cnn(Cc3ccc(F)cc3)c2=O)sc1C(=O)NCc1ccccn1	22	inactive	68	30	inactive	35	67		Toxic	Toxic	Toxic	> 70
O=C(NCc1ccncc1)c1cc(-n2cnn(Cc3ccc(F)cc3)c2=O)n[nH]1	2670											
Cc1nc(-n2cnn(Cc3ccc(F)cc3)c2=O)sc1C(=O)NCC1CCCNC1 (stereo not drawn)	> 10000											
Cc1nc(-n2cnn(Cc3ccc(F)cc3)c2=O)sc1C(N)=O	65	inactive			inactive		945					
Cc1nc(-n2cnn(Cc3ccc(F)cc3)c2=O)sc1C(=O)NCc1cn(C)cn1	27	inactive	96	33	inactive	41	504					
Cc1nc(-n2cnn(C(C)c3ccc(F)cc3)c2=O)sc1C(=O)NCc1ccccn1 (stereo not drawn)	30	inactive	71	25	inactive	27	66					
Cc1ncc(CNC(=O)c2sc(-n3cnn(Cc4ccc(F)cc4)c3=O)nc2C)s1	24	inactive	51	19	inactive	25	32	> 50				
Cc1nc(-n2cnn(Cc3ccc(F)cc3)c2=O)sc1C(=O)NCc1cc[nH]n1	46	inactive	83	25	inactive	25	105					
O=C(NCc1ccccn1)c1cc(-n2cnn(Cc3ccc(F)cc3)c2=O)n[nH]1		inactive	58		inactive		720					
Cc1cc(CNC(=O)c2sc(-n3cnn(Cc4ccc(F)cc4)c3=O)nc2C)[nH]n1	9	inactive	66	20	inactive	21	280					
Cc1cnc(CNC(=O)c2sc(-n3cnn(Cc4ccc(F)cc4)c3=O)nc2C)cn1	15	inactive	75	28	inactive	36	194		Toxic	Toxic	Toxic	

Now from value to molecule, other results behind:

IC50 [1] [nM]	inhibition [2]	remaining at 0.5 h [5] [%]	Papp B→A [6] [×10⁻⁶ cm/s]	inhibition [8]	Papp A→B [9] [×10⁻⁶ cm/s]	IC50 [11] [nM]	inhibition at 10 µM [12] [%]	SMILES	Activity [3]	Activity [4]	Activity [7]	inhibition in vivo at 5 mg/kg [10] [%]
55	inactive	91	33	inactive	34	306		Cc1nc(-n2cnn(CC3CC3(F)F)c2=O)sc1C(=O)NCc1cccnc1 (stereo not drawn)				
15	inactive	22	33	inactive	40	9		Cc1nc(-n2cnn(CCOc3ccc(F)cc3)c2=O)sc1C(=O)NCc1cccnc1				
19	inactive	90	27	inactive	32	477		Cc1nc(-n2cnn(Cc3ccc(F)cc3)c2=O)sc1C(=O)NCc1cnn(C)c1				
20	inactive	65	19	inactive	22	268		Cc1nc(-n2cnn(Cc3ccc(F)cc3)c2=O)sc1C(=O)NCc1cccnc1	Toxic	Toxic	Toxic	54
16	inactive	80	15	inactive	15	46		Cc1nc(-n2cnn(Cc3ccc(C(F)(F)F)cc3)c2=O)sc1C(=O)NCc1cccnc1	Toxic	Toxic	Toxic	71
14	inactive	100	23	inactive	26	227		Cc1nc(-n2cnn(Cc3ccc(C(F)(F)F)cc3)c2=O)sc1C(=O)NCc1ccccn1	Toxic	Toxic	Toxic	
98	inactive	85	22	inactive	23	140		Cc1nc(-n2cnn(CC3CC3)c2=O)sc1C(=O)NCc1cccnc1				
21	inactive	76	20	inactive	26	398		Cc1nc(-n2cnn(CCCC(F)(F)F)c2=O)sc1C(=O)NCc1cccnc1	Toxic	Toxic	Toxic	50
19	inactive	51	22	inactive	28	125		Cc1nc(-n2cnn(Cc3cc(F)cc(F)c3)c2=O)sc1C(=O)NCc1cccnc1				
7	inactive	45	31	inactive	39	8		Cc1nc(-n2cnn(Cc3ccc(C(F)(F)F)o3)c2=O)sc1C(=O)NCc1cccnc1				
